Measurements from patent US5049389A, “Novel liposome composition for the treatment of interstitial lung diseases” (priority 1989, dated 1991).

How the values were obtained:
[1] = Thin layer chromatographic assay of lung samples for BDP metabolism; format: in vivo, rat; conditions: thin layer chromatography
[2] = Partition between octanol and phosphate buffer saline; format: physicochemical; conditions: pH 7.4
Source text: Nearly all (95%) of the BDP was associated with the octanol.

[3] = rat, in vivo
Procedure: The amount of drug in the lungs at time zero can be used to determine the amount of free drug in the formulation, since free drug is very rapidly absorbed from the lungs (Dose=free drug+amount in lungs at t=0). This amount also includes any liposome associated drug that was rapidly released ("burst" effect).
The absorption kinetics (sustained release) was determined by measuring percentage of ^14 C BDP remaining in the lungs following the intratracheal instillation of the above described five liposome formulations and one intravenous administration of free drug.
All studies were performed in male Sprague-Dawley rats weighing 250 to 450 g. After fasting for 16 hours, animals were anesthetized by i.m. injection of ketamine (25 mg/kg), xylazine (5 mg/kg) and acepromazine (0.5 mg/ml). During the procedure the animal's body temperature was maintained with a 37° C. heating pad. Additional anesthetic was administered as required, using half the original dose. A midline incision was made in the neck and the right jugular vein and left carotid artery were cannulated with short lengths of polyethylene tubing to which a 23 ga Luer stub adapter (Clay Adams #7565) and plastic 3-way stopcock (Argyle #173518) were attached. Blood samples (0.5-4 ml) were removed from the carotid arterial cannula after first flushing with fresh blood to clear the line. Blood volume removed was replaced with an equal volume of 5% dextrose solution containing 50 U/ml of heparin via the jugular cannula. For intravenous (i.v.) injection studies, drug was injected into the venous cannula with a 500 ul glass syringe via a 22 ga needle and injection cap and flushed with 0.5 to 1.0 ml dextrose solution.
For intratracheal (i.t.) instillation of BDP formulations, (Table V) the trachea was cannulated with a 4 cm long section of Teflon tubing (1.2 mm I.D.), inserted at the level of the fifth tracheal ring below the thyroid cartilage and tied in place with a suture. Excess fluid in the trachea was aspirated through tubing attached to a syringe. […]

[4] = system: chronic relapsing Stage II and III pulmonary sarcoidosis; conditions: 1200 or 2400 ug daily inhaled via Nebuhaler; cited from earlier work

Row | SMILES | metabolism of BDP prior to leaving the lungs [1] | BDP associated with the octanol [2] [%] | drug absorbed before the first time point [3] | apparent half-life in lungs (elimination of released radiolabel, not absorption) ([3]; 0.008 mg/kg) [h] | ^14 C BDP removed from the lungs (absorbed) ([3]; 0.5 h) [%] | improvement in pulmonary sarcoidosis [4]
1 | CCC(=O)OCC(=O)[C@@]1(OC(=O)CC)[C@@H](C)C[C@H]2[C@@H]3CCC4=CC(=O)C=C[C@]4(C)[C@@]3(Cl)[C@@H](O)C[C@@]21C [Beclomethasone dipropionate, beclomethasone dipropionate] | no detectable metabolism of BDP prior to leaving the lungs | 95 | over 98% | 3.0 | 99.7 | –
2 | CCCC1O[C@@H]2C[C@H]3[C@@H]4CCC5=CC(=O)C=C[C@]5(C)[C@H]4[C@@H](O)C[C@]3(C)[C@]2(C(=O)CO)O1 (stereo partly drawn) [budesonide] | – | – | – | – | – | showed improvement in chronic relapsing Stage II and III pulmonary sarcoidosis
